Laboratory results reported in patent US8252748B2, “Peptide derived from neurotensin receptor 3 and use thereof in the treatment of psychiatric diseases” (Centre National de la Recherche Scientifique—CNRS, priority 2007, dated 2012).
No end group written: not given here.

Key:
[1] = biological target: T1, TREK-1 channel (Homo sapiens, UniProt O95069); assay: Whole-cell patch clamp of TREK-1 channel activity in transfected COS-7 cells; format: cell-based
T1 construct: expressed in transfected cells; host or cells: COS-7 cells (ATCC CRL-1651), DEAE-dextran transfection
T1 sequence (O95069 1-426): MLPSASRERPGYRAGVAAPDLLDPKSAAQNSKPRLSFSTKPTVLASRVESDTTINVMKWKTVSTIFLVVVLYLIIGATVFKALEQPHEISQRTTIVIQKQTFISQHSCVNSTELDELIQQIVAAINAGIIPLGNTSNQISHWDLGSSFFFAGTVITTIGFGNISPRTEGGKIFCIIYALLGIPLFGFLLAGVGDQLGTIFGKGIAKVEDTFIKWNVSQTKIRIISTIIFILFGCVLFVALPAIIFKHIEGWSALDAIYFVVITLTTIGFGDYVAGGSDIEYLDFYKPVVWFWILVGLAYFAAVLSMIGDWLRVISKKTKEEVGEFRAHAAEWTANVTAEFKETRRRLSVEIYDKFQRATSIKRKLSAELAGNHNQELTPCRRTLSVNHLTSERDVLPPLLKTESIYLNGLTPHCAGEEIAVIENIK
Description: All the experiments for measuring the effect of the propeptide were conducted on COS-7 cells (cell line derived from kidney fibroblasts of African green monkey Cercopithecus aethiops). These cells are sown at a density of 20 000 cells/dish with diameter of 35 mm, 24 hours before being transfected by the DEAE-dextran method with 1 μg of pIRES-EGFP-TREK-1 plasmid. Measurements of current were taken 48 to 72 hours after transfection.
Culture of the COS-7 cells. The COS-7 cells (ATCC reference: CRL-1651) are cultivated in DMEM medium (Gibco)/10% fetal calf serum (FCS, ICN), at 37° C. in the presence of 5% CO2.
Transfection using DEAE dextran. On day 1, the COS-7 cells are sown at 20 000 cells per 35-mm diameter dish containing 2 ml of culture medium. On day 2, the medium is removed and the cells are covered with 200 μl of PBS (Gibco) containing 1 μg of pIRES-EGFP-TREK-1 plasmid and 100 μg of DEAE-dextran (Sigma) then placed at 37° C./5% CO2. After incubation for 30 minutes, 2 ml of medium DMEM/10% NuSerum/80 μM chloroquin is added. After 3 hours, the medium is replaced with 2 ml of DMEM/10% FCS and the cells are incubated for 48 to 72 hours before being measured by electrophysiological methods.
Electrophysiological measurements: all the measurements are taken at room temperature, i.e. at 21-22° C. The cells that were transfected by the plasmid are detected from the fluorescence emitted by the EGFP after excitation at 480 nm.
The whole-cell patch clamp technique was used for measuring the activity of the TREK-1 channels. The equipment used is the RK 400 patch-clamp amplifier (Axon Instruments, U.S.A.). The patch pipettes with resistance of 1.3 to 8 MΩ are prepared from capillaries of borosilicate glass and are filled with a solution of 155 mM KCl, 3 mM MgCl2, 5 mM EGTA, 10 mM HEPES/KOH pH 7.2.
The cell culture medium is replaced with a solution of 150 mM NaCl, 5 mM KCl, 3 mM MgCl2, 1 mM CaCl2, 10 HEPES/NaOH pH 7.4 containing 10 mM tetraethyl ammonium chloride, 3 mM of 4-aminopyridin. The cells are perfused continuously with this solution. The rest potential of the membrane of the measured cell is fixed at −80 mV.
The variations in voltage are obtained either with a continuous ramp (from −100 to +50 mV) or by potential jumps of 10 mV (from −100 to +40 mV, 1.5 second per jump).
The data obtained were analyzed with the Pclamp software. The currents described in the appended FIG. 2B were obtained at 0 mV, the results expressed are the mean values±standard deviation. The IC50 value was obtained by plotting the experimental data with a sigmoidal function.
The activity of the channel is then measured by the patch-clamp technique in whole-cell configuration as described above.

[2] = system: mouse (C57Black/J); assay: Tail suspension test (TST); format: in vivo; details: IV 100 μl at 1 μM per animal; 30 min after injection
Source text: (§1) The inventors conducted three types of behavioral experiments that are regarded as classical for determining the antidepressant activity of a substance (Nestler E. J., Gould E., Manji H., Buncan M., Duman R. S., Greshenfeld H. K., Hen, R. et al. “Preclinical models: status of basic research in depression” Biol Psychiatry. 15, 503-528 (2002) (20) and Cryan, J. & Holmes, A. “The ascent of mouse: advances in modeling human depression and anxiety” Nat Rev Drug Discov. 4, 775-790 (2005) (21)). The effects of the propeptide of the present invention were compared with those of the saline solution in which it is dissolved and with those of fluoxetine, one of the most-used antidepressants in clinical practice. The mouse strain used is C57Black/J strain. TREK-1^−/− mice were also measured in these various tests.
(§2) In the next two tests, the propeptide of the present invention was administered by the IV route at a rate of 100 μl at 1 μM per animal.
B. Tail Suspension Test (TST)
(see Cryan, J. & Holmes, A. (2005) (21) and Ripoll, N., David, D., Dailly, E., Hascoet, M. & Bourin, M. “Antidepressant-like effects in various mice strains in the tail suspension” Behav Brain Res. 143(2:193-200 (2003) (22).)
The experiment, 30 min after injection of the test substance in the mouse, consists of suspending the mouse by the tail by means of an adhesive ribbon and measuring the immobility time for 6 min.

[3] = system: mouse (C57Black/J); assay: Conditioned motility suppression test (CMST); format: in vivo; details: propeptide IV 100 μl at 1 μM per animal; 30 min after injection
Source text: as §1, §2
C. Conditioned Motility Suppression Test (CMST) (see Daugé, V., Sebret, A., Beslot, F., Matsui, T., & Rogues B. “Behavioral profile of CCK2 receptor-deficient mice” Neuropsychopharmacol; 25: 690-698 (2001) (23).
The experiment consists of conditioning the mouse on day 1, and measuring the effects of the substances on day 2.
On day 1, each mouse is placed in a box where the floor is a metal grille connected to an electric stimulator. […]

APLPRWSGPIGVSWGLR [propeptide, APLPRWSGPIGVSWGLR]
current density at 0 mV ([1]; 10 μM arachidonic acid plus 100 μM of propeptide (130 pA/pF without propeptide)): 56 pA/pF | inhibition at 100 µM ([1]; COS-7, read-out: inhibition of channel activity measured at 0 mV): 25% | IC50 ([1]; activated by 10 μM arachidonic acid, measured at 0 mV, read-out: half-effect concentration (IC50) of inhibition of TREK-1 channel activity): 70.7 nM | current density at 0 mV ([1]; baseline conditions, 100 μM of propeptide (control 31 pA/pF)): 23 pA/pF | activation of TREK-1 by arachidonic acid ([1]; electrophysiology, FIG. 2): blocked | effect on immobility time [2]: comparable to those produced by fluoxetine | motility relative to untreated shocked mice [3]: 7 times greater
